Source: publication PMC7382501 (Nature Communications, 2020)

Columns and labels:
[1] = system: Mtb FasR; details: ref Mondino et al Mol Microbiol 2013 89:372; cited from earlier work
[2] = molecular target: FasRwt (Mycobacterium tuberculosis, UniProt O05858)
Sequence of FasRwt (O05858 whole entry): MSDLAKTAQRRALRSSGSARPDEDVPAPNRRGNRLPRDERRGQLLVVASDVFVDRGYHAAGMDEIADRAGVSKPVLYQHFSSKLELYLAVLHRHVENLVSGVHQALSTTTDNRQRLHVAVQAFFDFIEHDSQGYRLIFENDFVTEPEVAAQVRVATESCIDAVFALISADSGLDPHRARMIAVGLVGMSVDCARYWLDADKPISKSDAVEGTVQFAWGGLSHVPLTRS

Structure (SMILES)	triggering of DNA-dissociation [1]	k, exponential decay rate of full-length FasR under trypsin proteolysis [2]
CCCCCCCCCCCCCC(=O)O [C14, myristic acid]	ineffective at triggering DNA-dissociation	
CCCCCCCCCCCCCCCCCCCC(=O)SCCNC(=O)CCNC(=O)[C@H](O)C(C)(C)COP(=O)(O)OP(=O)(O)OC[C@H]1O[C@@H](n2cnc3c(N)ncnc32)[C@H](O)[C@@H]1OP(=O)(O)O [C20-CoA, arachidoyl-CoA]		0.11
